Results as given in ChEMBL document CHEMBL1201862, “PubChem BioAssay data set” (2004).
Calls of active or inactive are those of the source. Cut-off read from the data, not from the text of the source, for most assays here: actives have a measured EC50 and inactives only a lower limit.

How the values were obtained:
[1] = cells; assay type: functional, cell-based
[2] = cells; assay type: functional, cell-based; remark: listed apart in the source
[3] = Luminescence Cell-Based Dose Confirmation HTS to Identify Inhibitors of Platelet Dense Granule Release. [Related pubchem assays: 1663 (Primary HTS), 1678 (Summary of Project)]; assay type: functional
[4] = system: INS1; test: beta cell apoptosis inhibitors, cytokine rescue, dose response, luminescence, retest (AID 449756); assay type: functional, cell-based; conditions: Rattus norvegicus;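 note: cell death triggered by IL-1 beta plus TNF-alpha plus IFN-gamma mixture; protective hits raise ATP signal compared with cytokine alone wells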
[5] = inhibitors of intracellular T. cruzi replication, confirmation, NIH3T3 host cells, beta-gal luminescence (AID 2044); assay type: functional, cell-based;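 note: intracellular parasites grown in NIH/3T3 mouse fibroblasts as host cells; luminescent beta-galactosidase reporter signal from transgenic T. cruzi replicating inside host cells; inhibitors lower the luminescence signal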
[6] = cytotoxicity toward NIH3T3 fibroblasts, dose response, counter-screen, cell-based, ATP luminescence, mouse fibroblasts (AID 2010); assay type: functional;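 note: cells exposed to compound for about 90 hours before reading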
[7] = Luminescence Cell-Based Dose Retest to Confirm Inhibitors of Cancer Stem Cells. [Related pubchem assays (depositor defined):AID2717, AID2721]; assay type: functional; conditions: Homo sapiens
[8] = biological target: Luciferin 4-monooxygenase (Photinus pyralis, UniProt P08659); test: firefly luciferase enzyme inhibitors, dose response, biochemical, luminescence (AID 1891)
Sequence of Luciferin 4-monooxygenase (P08659 whole entry): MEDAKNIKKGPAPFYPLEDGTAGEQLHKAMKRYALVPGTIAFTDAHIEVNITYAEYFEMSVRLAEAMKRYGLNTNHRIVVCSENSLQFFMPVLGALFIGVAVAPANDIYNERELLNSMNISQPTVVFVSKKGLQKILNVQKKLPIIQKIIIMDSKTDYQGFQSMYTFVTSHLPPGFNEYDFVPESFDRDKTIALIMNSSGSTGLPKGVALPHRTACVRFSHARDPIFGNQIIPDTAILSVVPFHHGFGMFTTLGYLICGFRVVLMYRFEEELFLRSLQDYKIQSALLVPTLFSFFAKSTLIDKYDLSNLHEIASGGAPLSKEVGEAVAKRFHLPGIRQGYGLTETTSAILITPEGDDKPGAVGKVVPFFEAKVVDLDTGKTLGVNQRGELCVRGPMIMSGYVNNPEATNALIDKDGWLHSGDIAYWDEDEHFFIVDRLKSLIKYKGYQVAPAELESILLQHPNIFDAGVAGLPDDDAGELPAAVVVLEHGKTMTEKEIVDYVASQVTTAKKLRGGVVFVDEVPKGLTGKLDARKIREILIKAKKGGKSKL

[9] = NIH-3T3 fibroblast cytotoxicity, dose response, cytotoxicity control, cell-based, fluorescence, Alamar Blue, secondary assay (AID 2327); assay type: functional;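 note: NIH-3T3 mouse fibroblasts cultured with fluconazole at 8 µg/mL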
[10] = C. albicans growth with fluconazole, confirmation, fluorescence, retest (AID 2467); assay type: functional, cell-based
[11] = HEp-2 cell cytotoxicity, dose response, cytotoxicity control for RSV inhibitor project, HTS (AID 2410); assay type: functional; conditions: human respiratory syncytial virus
[12] = biological target: T1, Replicative DNA helicase DnaB (Mycobacterium tuberculosis, UniProt P9WMR3); test: DnaB intein splicing inhibitors, dose response, biochemical, cell-free fluorescence (AID 449749); assay type: functional
T1 sequence (P9WMR3 whole entry): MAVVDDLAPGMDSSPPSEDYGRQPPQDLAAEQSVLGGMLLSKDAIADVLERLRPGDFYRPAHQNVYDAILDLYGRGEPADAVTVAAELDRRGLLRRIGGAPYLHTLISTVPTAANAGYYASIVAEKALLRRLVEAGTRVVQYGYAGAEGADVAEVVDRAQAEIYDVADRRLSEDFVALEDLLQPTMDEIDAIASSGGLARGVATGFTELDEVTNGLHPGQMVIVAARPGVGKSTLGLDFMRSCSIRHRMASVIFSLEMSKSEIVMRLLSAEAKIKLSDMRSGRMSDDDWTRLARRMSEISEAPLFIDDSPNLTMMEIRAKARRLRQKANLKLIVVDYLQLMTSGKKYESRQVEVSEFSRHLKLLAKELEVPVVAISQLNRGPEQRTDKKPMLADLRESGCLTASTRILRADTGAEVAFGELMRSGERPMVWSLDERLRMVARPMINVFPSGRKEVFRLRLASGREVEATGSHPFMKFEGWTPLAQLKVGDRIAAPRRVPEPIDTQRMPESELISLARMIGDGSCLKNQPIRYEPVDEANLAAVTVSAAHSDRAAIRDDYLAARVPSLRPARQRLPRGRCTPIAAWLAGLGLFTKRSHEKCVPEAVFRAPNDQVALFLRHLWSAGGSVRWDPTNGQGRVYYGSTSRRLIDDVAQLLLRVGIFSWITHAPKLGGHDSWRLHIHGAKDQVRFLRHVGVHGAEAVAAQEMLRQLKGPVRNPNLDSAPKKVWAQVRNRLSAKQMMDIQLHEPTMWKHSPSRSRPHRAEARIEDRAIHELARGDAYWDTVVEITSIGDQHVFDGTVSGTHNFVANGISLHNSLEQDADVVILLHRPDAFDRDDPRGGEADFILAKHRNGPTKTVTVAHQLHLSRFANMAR

[13] = biological target: T2, Protein RecA (Mycobacterium tuberculosis, UniProt P9WHJ3); test: Fluorescence Cell-Free Homogeneous Dose Retest to Identify Inhibitors of RecA-Intein Splicing Activity. [Related pubchem assays (depositor defined):AID2097, AID2223, AID489010, AID492950]; assay type: functional
T2 sequence (P9WHJ3 whole entry): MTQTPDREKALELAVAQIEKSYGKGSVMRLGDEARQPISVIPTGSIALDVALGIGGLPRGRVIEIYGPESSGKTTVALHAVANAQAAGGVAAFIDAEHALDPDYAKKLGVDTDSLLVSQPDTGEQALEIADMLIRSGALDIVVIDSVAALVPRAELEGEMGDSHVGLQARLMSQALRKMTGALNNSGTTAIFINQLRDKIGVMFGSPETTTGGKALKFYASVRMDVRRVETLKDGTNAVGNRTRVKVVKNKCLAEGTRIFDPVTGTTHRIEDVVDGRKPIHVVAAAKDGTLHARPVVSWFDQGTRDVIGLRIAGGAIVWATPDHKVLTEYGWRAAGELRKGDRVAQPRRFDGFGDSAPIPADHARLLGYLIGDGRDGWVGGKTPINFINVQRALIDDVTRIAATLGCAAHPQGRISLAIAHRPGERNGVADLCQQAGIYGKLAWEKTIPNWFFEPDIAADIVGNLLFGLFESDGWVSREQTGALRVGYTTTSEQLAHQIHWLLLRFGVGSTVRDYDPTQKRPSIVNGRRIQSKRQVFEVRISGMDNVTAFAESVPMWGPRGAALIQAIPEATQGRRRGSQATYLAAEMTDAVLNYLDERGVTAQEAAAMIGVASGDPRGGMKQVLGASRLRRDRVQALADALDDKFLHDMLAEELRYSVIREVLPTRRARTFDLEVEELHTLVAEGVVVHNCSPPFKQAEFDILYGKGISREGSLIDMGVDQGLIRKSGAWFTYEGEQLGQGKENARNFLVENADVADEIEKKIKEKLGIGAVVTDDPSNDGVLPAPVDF

CCCN(CCC)C(C)C(=O)NCC1(c2ccccc2)CCCC1 (configuration not stated)
EC50 [1]: > 350 µM (not active)
EC50 [2]: 45.6 µM (active)

CN=C(S)Nc1ccc(C(N)=O)cc1
EC50 [3]: > 112 µM (not active)

O=C(NCc1ccccn1)c1cc(-c2ccc(Cl)cc2)oc1C(F)(F)F
AC50 [4]: > 260 µM (inactive)

CCCCC(=O)N1C/C=C\C(c2ccc(OC)cc2)N(Cc2ccc(F)cc2)C(=O)[C@H]1Cc1ccccc1 (some centres not stated)
AC50 [4]: 8.17 µM (active)
EC50 [5]: 1.99 µM (active)
EC50 [6]: > 60 µM (not active)

COCCCn1c(SCc2cccc(C(F)(F)F)c2)nc2cc(OC)c(OC)cc2c1=N
AC50 [7]: 4.12 µM (active)
EC50 [5]: 1.92 µM (active)
EC50 [6]: > 60 µM (not active)

CCc1nnc(NC(=O)CSc2nnc(Cc3cccn3C)n2CCOC)s1
EC50 [3]: > 112 µM (not active)
EC50 [8]: > 112 µM (not active)

COCCN(C(=O)CC(C)(C)C)c1nnc(-c2cccnc2)s1
EC50 [3]: > 112 µM (not active)
EC50 [8]: > 112 µM (not active)

COc1cccc(CNC(=O)N[C@@H](CC(C)C)C(=O)O)c1
EC50 [3]: > 112 µM (not active)
EC50 [8]: > 112 µM (not active)

N=C(Cc1ccc(Cl)cc1Cl)NOC(=O)c1ccccc1
EC50 [9]: > 160 µM (inactive)
EC50 [10]: > 38 µM (not active)

Cc1cccc(NC(=O)CC2SC(=O)N(c3ccccc3)C2=O)c1 (configuration not stated)
EC50 [3]: > 112 µM (not active)
EC50 [8]: > 112 µM (not active)

COCCNC(=O)C(c1ccc(C)o1)N(CCOC)C(=O)Cn1nnc2ccccc21 (configuration not stated)
EC50 [9]: > 150 µM (inactive)
EC50 [10]: > 38 µM (not active)

CCc1cccc2c(-c3cs/c(=N\C)n3C)c[nH]c12
CC50 [11]: 41.7 µM (active)

N#CC1(NC(=O)COC(=O)c2cc(O)c3ccccc3c2O)CCCCC1
AC50 [7]: 6.49 µM (active)
AC50 [12]: 4.37 µM (active)
EC50 [13]: 4.28 µM (active)

COc1ccc(OC)c(CCNC(=O)CCc2nnc3ccc(N4CCCCC4)nn23)c1
EC50 [3]: 52.5 µM (active)
EC50 [8]: > 112 µM (not active)

Cc1cccc(C)c1NC(=O)CN(C)C(=O)Cn1c(=O)cnc2ccccc21
EC50 [3]: > 112 µM (not active)
EC50 [8]: > 112 µM (not active)

CCN(CCn1cccn1)Cc1c[nH]nc1-c1cccc2ccccc12
EC50 [3]: > 112 µM (not active)
EC50 [8]: > 112 µM (not active)

O=C(Cc1ccc(Cl)cc1)Nc1ccc2c(c1)C(=O)NC2=O
AC50 [7]: > 195 µM (inactive)

O=C(/C=C/c1ccc2c(c1)OCO2)Nc1nc(-c2ccccc2)cs1
AC50 [7]: 0.943 µM (active)

COc1ccc(C2NC(c3ccc(OC)cc3)C([N+](=O)[O-])C(C)(C)C2[N+](=O)[O-])cc1 (configuration not stated)
EC50 [3]: > 112 µM (not active)
EC50 [8]: > 112 µM (not active)

COc1ccccc1NC(=O)COC(=O)c1ccccc1C(=O)N1CCN(c2ccccc2)CC1
CC50 [11]: 29.5 µM (active)
